Test system: P23H opsin
Assay: Rhodopsin purification and regeneration: pigment formation from P23H opsin after compound treatment of P23H cells
Conditions: for Fold Increase Over Control (480-500 nm absorbance): P23H cells treated 48 hours, regenerated with 9-cis-retinal (20 μM), fold increase over the DMSO control

## CC1=C(C(O)c2ccc3c(c2)CCN(C(N)=O)C3)C(C)(C)CCC1 (centres unmarked) [Compound 2, 6-(hydroxy(2,6,6-trimethylcyclohex-1-enyl)methyl)-3,4-dihydroisoquinoline-2(1H)-carboxamide]
10 μM
  Fold Increase Over Control (480-500 nm absorbance): 2.5 fold

## C[C@H]1CCCC(C)(C)[C@@H]1[C@H](O)c1ccc2c(c1)CCN(C(N)=O)C2 [Compound 3, 6-((S)-hydroxy((1R,6S)-2,2,6-trimethylcyclohexyl)methyl)-3,4-dihydroisoquinoline-2(1H)-carboxamide]
10 μM
  Fold Increase Over Control (480-500 nm absorbance): 1.5 fold

## C[C@H]1CCCC(C)(C)[C@@H]1[C@@H](O)c1ccc2c(c1)CCN(C(N)=O)C2 [Compound 5, 6-((R)-hydroxy((1R,6S)-2,2,6-trimethylcyclohexyl)methyl)-3,4-dihydroisoquinoline-2(1H)-carboxamide]
10 μM
  Fold Increase Over Control (480-500 nm absorbance): 1.9 fold

## CC(=O)/C=C/C1=C(C)CCCC1(C)C [β-ionone, reference compound]
20 μM
  Fold Increase Over Control (480-500 nm absorbance): 2.4 fold
P23H opsin treated with 20 μM during mutant protein production, relative to vehicle (DMSO) alone
  regeneration of 500 nm absorbing pigment upon treatment with retinal (FIG. 1): increase in regeneration of 500 nm absorbing pigment
